Read-outs that look alike come from different tables or passages of the source.

Data on six molecules can be found in patent US20230374043A1, “Hexadeca Ammonium-Modified Phthalocyanine and Preparation Method and Use Thereof as Photodynamic Drug” (Fuzhou University, priority 2020, published 2023).

The subject of data set [1] is human liver cancer cells HepG2. Description: dark toxicity and photodynamic anticancer effect on HepG2 cells (MTT). Format: cell-based. The settings on record: for photodynamic anticancer activity: HepG2, after illumination with red light; for photodynamic activity relative to tetrakis-α-(2,4,6-tris(N,N,N-trimethylammonium methyl)-phenoxy)zinc phthalocyanine dodecaiodate: HepG2, under illumination; for dark toxicity on HepG2 cells: without illumination, 2 h incubation. As to the method: The dark toxicity and photodynamic anticancer effect of the 2,3-bis[3-(trimethyl ammonium)phenoxy]zinc phthalocyanine diiodate of Example 2, the 1,2,3,4-bis[3-(trimethylammonium)phenoxy]zinc phthalocyanine tetraiodate of Example 4, the octa-β-[3-(trimethylammonium)phenoxy]zinc phthalocyanine octaiodate of Example 6, and the hexadeca-[3-(trimethylammonium)phenoxy]zinc phthalocyanine hexadecaiodate of Example 8 on human liver cancer cells HepG2 were tested, respectively.
The main steps were as follows: the above photosensitive medicaments were separately dissolved in water to obtain 1 mM photosensitizers, and then diluted into a cell medium to prepare cell mediums containing zinc phthalocyanine complexes at different concentrations. The human liver cancer cells HepG2 were cultured in the mediums containing zinc phthalocyanine complexes at different concentrations for 2 h; the medium was discarded; and after washing with PBS, the cells were added into a new medium (without zinc phthalocyanine complexes). Illumination experiment group: the cells were irradiated with red light for 30 min at a power of irradiated light at 15 mW cm^−2 using red light with a wavelength greater than 600 nm as an excitation light source; non-illumination control group: the cells were placed in the dark for 30 min. After illumination or non-illumination, the cell viability was examined by MTT.
(§1) The red light with a wavelength greater than 610 nm was provided by a 500 W halogen lamp connected to an insulated water tank and an optical filter greater than 610 nm.

The test system of data set [2] is Staphylococcus aureus. Description: dark toxicity and photodynamic antibacterial effect against Staphylococcus aureus (colony count). Format: cell-based. The conditions noted are these: for increase compared with the IC90 value of MB: under illumination; for IC90: 4 h incubation, red light >610 nm, 15 mW cm^-2, 30 min, read-out: IC90 value (concentration required to kill 90% of Staphylococcus aureus); for photodynamic antibacterial activity: after illumination with red light; for dark toxicity on Staphylococcus aureus: without illumination, 4 h in PBS, colony count. As to the method: The dark toxicity and photodynamic antibacterial effect of the 2,3-bis[3-(trimethylammonium)phenoxy]zinc phthalocyanine diiodate of Example 2, the 1,2,3,4-bis[3-(trimethylammonium)phenoxy]zinc phthalocyanine tetraiodate of Example 4, the octa-β-[3-(trimethylammonium)phenoxy]zinc phthalocyanine octaiodate of Example 6, and the hexadeca-[3-(trimethylammonium)phenoxy]zinc phthalocyanine hexadecaiodate of Example 8 against Staphylococcus aureus were tested.
1 mM of the photosensitive medicament was diluted into PBS to prepare a PBS solutions containing zinc phthalocyanine complexes at different concentrations, and then Staphylococcus aureus was cultured in the PBS solutions containing zinc phthalocyanine complexes at different concentrations for 4 h. Illumination experiment group: the cells were irradiated with red light for 30 min at a power of irradiated light at 15 mW cm^−2 using red light with a wavelength greater than 610 nm as an excitation light source; non-illumination control group: the cells were placed in the dark for 30 min. A treated cell suspension was inoculated on a surface of a Luria-Bertani medium, cultured for 48 h, and the dark toxicity and photodynamic activity of the photosensitive medicament to Staphylococcus aureus were examined by the number of colonies.
as §1

The subject of data set [3] is liver cancer H22. Description: small animal live imaging in tumor-bearing (liver cancer H22) mouse model. The data set is classed as in vivo. The conditions noted are these: tail vein; for time at which tumor fluorescence reached its peak: 0.8 mol·Kg^-1, imaging within 24 h. As to the method: The 2,3-bis[3-(trimethylammonium)phenoxy]zinc phthalocyanine diiodate of Example 2, the 1,2,3,4-bis[3-(trimethylammonium)phenoxy]zinc phthalocyanine tetraiodate of Example 4, the octa-β-[3-(trimethylammonium)phenoxy]zinc phthalocyanine octaiodate of Example 6, and the hexadeca-[3-(trimethylammonium)phenoxy]zinc phthalocyanine hexadecaiodate of Example 8 each were dissolved in a physiological saline and diluted into solutions to be tested. A tumor-bearing (liver cancer H22) mouse model was established according to a method in the literature (ACS Applied Materials & Interfaces, 2019, 11(40), 36435-36443), 100 μL of each phthalocyanine solution (at an administration dosage: […]) was injected through the tail vein, and small animal live imaging was conducted within the next 24 h.

Data set [4] concerns Staphylococcus aureus. The settings on record: comparison value, source not stated, read-out: IC90 value of the commonly used photosensitizer; cited from earlier work.
Data set [5] in a line: ultraviolet-visible absorption spectrum of zinc phthalocyanine complexes in water. Format: physicochemical. The settings on record: for maximum absorption wavelength: in water; for state in water judged from Q band (aggregation / monomer): 4 μM, no surfactant. From the text:
It was seen from the figure that the Q bands of the zinc phthalocyanine complexes obtained in Examples 1 to 6 in water each were relatively wide and low, showing different degrees of aggregation; while only the Q bands of the zinc phthalocyanine complexes in Examples 7 and 8 in water were strong and sharp peaks.

Data set [6] has as its system subcutaneous tumors. Description: photodynamic tumor inhibition in KM mice with subcutaneous tumors. Format: in vivo. The procedure:
The zinc phthalocyanine complex obtained in Example 8 was dissolved in physiological saline and diluted to form a solution to be tested. […] with subcutaneous tumors were taken, and each drug was divided into 4 groups (a medication+laser group, a medication group, a normal saline group, and a normal saline+laser group), with 5 mice in each group; when the tumor grew to (60-100) mm^3, 100 μL of a phthalocyanine aqueous solution was injected intravenously at a dosage of […]. After 1 h, the mice were anesthetized and irradiated with laser of (685±5) nm (at a light intensity of 9.4 mW cm^−2 for 10 min). The mice were continued to be fed, and observed every other day; a weight of the mice was measured and a long diameter and a short diameter of the mice were measured with a vernier caliper for a total of 14 d.

The subject of data set [7] is Staphylococcus aureus. The data set is described as follows: photodynamic antibacterial effect on mice infected with Staphylococcus aureus. The data set is classed as in vivo. The conditions noted are these: 15 d. The procedure: A photodynamic antibacterial effect of the hexadeca-[3-(trimethylammonium)phenoxy]zinc phthalocyanine hexadecaiodate of Example 8 was tested on mice infected with Staphylococcus aureus.
0.1 mL of a PBS solution containing Staphylococcus aureus colonies was inoculated subcutaneously on the right abdomen of depilated normal-grade KM female mice (weighed about 20 g), at a cell concentration of (1-2)×10^6 CFU·mL^−1, and the mice could be treated two days after inoculation. 4 groups were set up, namely a hexadeca-[3-(trimethylammonium)phenoxy]zinc phthalocyanine hexadecaiodate+laser group, a hexadeca-[3-(trimethylammonium)phenoxy]zinc phthalocyanine hexadecaiodate group, a blank+laser group, and a blank group. Before treatment, a sterile absorbent pad of a wound dressing was soaked with 100 μL of the phthalocyanine aqueous solution (containing 1% CEL), applied to the wound of the treatment group, and fixed with a zinc oxide tape. The wound dressing was applied for 2 h each time, and then the dressing was changed once, and then continued for another 2 h. The blank group was given normal saline for applying. After 4 h, the illumination group was treated with laser at (685±5) nm (with a light intensity of 9.4 mW·cm^−2 for 5 min). The mice were observed and recorded for 15 d. After 15 d, the tissues at the infected site were excised, ground and extracted with 1 mL of a sterilized PBS to obtain a bacterial suspension, diluted by 50 times, spread on the surface of the corresponding Luria-Bertani medium, with parallelly 3 plates for each concentration, cultured in a 37° C. incubator, and then observed and counted after 24 h.

[8] abbreviates: Homo sapiens, HepG2, read-out: half maximal inhibitory concentration (IC50).

`C[N+](C)(C)c1cccc(Oc2c(Oc3cccc([N+](C)(C)C)c3)c(Oc3cccc([N+](C)(C)C)c3)c3c(c2Oc2cccc([N+](C)(C)C)c2)C2=Nc4c5ccccc5c5[n]4[Zn@]46[n]7c(c8ccccc8c7=NC3=[N+]24)=NC2=[N+]6C(=N5)c3ccccc32)c1` [Example 4]: in data set [1], the photodynamic anticancer activity result was “high photodynamic anticancer activity” and the “photodynamic activity relative to tetrakis-α-(2,4,6-tris(N,N,N-trimethylammonium methyl)-phenoxy)zinc phthalocyanine dodecaiodate” value was determined as 1.00 times. For the same molecule, the IC50 in data set [1] (setting [8]) stood at 210 nM. Besides, in data set [1] (MTT), the “dark toxicity on HepG2 cells” value was “no killing and growth inhibitory effect”. In data set [2] (Staphylococcus aureus), the “increase compared with the IC90 value of MB” value (“increase” below) was 80 times and the IC90 was found to be 74 nM. For the same molecule, in data set [2], the photodynamic antibacterial activity entry is listed as “high photodynamic antibacterial activity”; the “dark toxicity on Staphylococcus aureus” value is “no killing and growth inhibitory effect”. In addition, in data set [3] (0.8 mol·Kg^-1), the “accumulation / targeting ability in tumor sites” value is on record as “poor accumulation ability in tumor sites”.

As for `CN(C)c1ccc2nc3ccc(=[N+](C)C)cc-3sc2c1` [MB], the IC90 in data set [4] was 5900 nM.

With `C[N+](C)(C)c1cccc(Oc2cc3c(cc2Oc2cccc([N+](C)(C)C)c2)C2=[N+]4C3=Nc3c5ccccc5c5[n]3[Zn@]43[n]4c(c6ccccc6c4=N2)=NC2=[N+]3C(=N5)c3ccccc32)c1` [Example 2, 2,3-bis[3-(trimethylammonium)phenoxy]zinc phthalocyanine diiodate], in data set [1], the photodynamic anticancer activity result is listed as “high photodynamic anticancer activity” and the “photodynamic activity relative to tetrakis-α-(2,4,6-tris(N,N,N-trimethylammonium methyl)-phenoxy)zinc phthalocyanine dodecaiodate” value came to 1.23 times. For the same molecule, in data set [1] (setting [8]), the IC50 came to 170 nM. Also, the “dark toxicity on HepG2 cells” value in data set [1] (MTT) is “no killing and growth inhibitory effect”. Besides, in data set [2] (Staphylococcus aureus), the “increase” value is 69 times and the IC90 turned out to be 85 nM. Moreover, in data set [2], the photodynamic antibacterial activity entry is recorded as “high photodynamic antibacterial activity”; the “dark toxicity on Staphylococcus aureus” value was “no killing and growth inhibitory effect”. In data set [3] (0.8 mol·Kg^-1), the enrichment in organs result was “enriched to varying degrees in organs such as liver and spleen”; the metabolism in vivo entry was “low metabolism”. Besides, the “time at which tumor fluorescence reached its peak” value in data set [3] came out at 12 h.

As for `C[N+](C)(C)c1cccc(Oc2cc3c(cc2Oc2cccc([N+](C)(C)C)c2)C2=[N+]4C3=Nc3c5cc(Oc6cccc([N+](C)(C)C)c6)c(Oc6cccc([N+](C)(C)C)c6)cc5c5[n]3[Zn]43[n]4c(c6cc(Oc7cccc([N+](C)(C)C)c7)c(Oc7cccc([N+](C)(C)C)c7)cc6c4=NC4=[N+]3C(=N5)c3cc(Oc5cccc([N+](C)(C)C)c5)c(Oc5cccc([N+](C)(C)C)c5)cc34)=N2)c1` [Example 6, 2,3,9,10,16,17,23,24-octa[3-(trimethylammonium)phenoxy]zinc phthalocyanine octaiodate], the “photodynamic activity relative to tetrakis-α-(2,4,6-tris(N,N,N-trimethylammonium methyl)-phenoxy)zinc phthalocyanine dodecaiodate” value in data set [1] is on record as 1.50 times. The IC50 in data set [1] (setting [8]) was determined as 60 nM. In addition, the “dark toxicity on HepG2 cells” value in data set [1] (MTT) is “no killing and growth inhibitory effect”. In addition, in data set [2] (Staphylococcus aureus), the “increase” value was 83 times and the IC90 came to 71 nM. Also, the “dark toxicity on Staphylococcus aureus” value in data set [2] is “no killing and growth inhibitory effect”. Further, in data set [3] (0.8 mol·Kg^-1), the enrichment in organs result was “enriched to varying degrees in organs such as liver and spleen”; the metabolism in vivo result is listed as “low metabolism”. The “time at which tumor fluorescence reached its peak” value in data set [3] is reported as “about 12 h”.

In the case of “1,2,3,4,8,9,10,11,15,16,17,18,22,23,24,25-hexadeca[3-(dimethylamino)phenoxy]zinc phthalocyanine complex [Example 7]”, in data set [5], the maximum absorption wavelength is 727 nm and the “state in water judged from Q band (aggregation / monomer)” value is recorded as “monomers”.

“hexadeca-[3-(dimethylammonium)phenoxy]zinc phthalocyanine hexadecaiodate [Example 8]”: the toxicity to mice entry in data set [6] (i.v. 0.8 mol·Kg^-1, 14 d) is “no obvious toxicity”. This molecule returned a tumor inhibition rate in data set [6] (medication+laser group, i.v. 0.8 mol·Kg^-1, laser (685±5) nm 9.4 mW cm^-2 10 min after 1 h, 14 d) of 98.7%. Moreover, the “body weight of the mice in the treatment group” value in data set [6] (within 14 d) is recorded as “tendency to increase”. Besides, in data set [7] (+laser group), the “appearance of infected skin site” value is “crusted”. In addition, the “inhibition rate of Staphylococcus aureus colonies from excised tissue” value in data set [7] (+laser group, topical dressing 2x2 h (1% CEL), laser (685±5) nm 9.4 mW·cm^-2 5 min) is reported as 98%. Besides, in data set [7] (compound without laser), the “appearance of infected skin site” value was “obvious lumps”. The IC50 in data set [1] (HepG2, 2 h incubation, red light >600 nm, 15 mW cm^-2, 30 min, MTT, read-out: half maximal inhibitory concentration (IC50)) was 40 nM. For the same molecule, the “photodynamic activity relative to tetrakis-α-(2,4,6-tris(N,N,N-trimethylammonium methyl)-phenoxy)zinc phthalocyanine dodecaiodate” value in data set [1] was determined as 2.25 times. In data set [1] (MTT), the “dark toxicity on HepG2 cells” value is “no killing and growth inhibitory effect”. In addition, in data set [5], the maximum absorption wavelength came to 714 nm and the “state in water judged from Q band (aggregation / monomer)” value is “monomers”. In data set [2], the IC90 worked out at 69 nM; the “dark toxicity on Staphylococcus aureus” value was “no killing and growth inhibitory effect”. In data set [2] (Staphylococcus aureus), the “increase” value is on record as 86 times. Further, in data set [3] (0.8 mol·Kg^-1), the “accumulation / targeting ability in tumor sites” value is reported as “excellent targeting ability”, the metabolism in vivo result is “rapid metabolism in vivo” and the “time until basically scavenged by the body's metabolism” value was “about 6 h”. For the same molecule, the “time at which tumor fluorescence reached its peak” value in data set [3] is recorded as 2 h.
